As usually defined, the Ki is a measure of affinity in units of concentration, obtained from inhibition or displacement. Higher therefore signals lower affinity. The Km is the substrate concentration at which the rate is half of its maximum.

This passage reports Ki and Km results from PMC9628821, “Discovery of Chitin Deacetylase Inhibitors through Structure-Based Virtual Screening and Biological Assays” (Journal of Microbiology and Biotechnology, 2022).

For data set [1], the target named is T1, AnCDA (Aspergillus nidulans chitin deacetylase) (Aspergillus nidulans, UniProt Q5AQQ0).
T1 construct: gene cda; recombinant AnCDA (GenBank XM_677557.1), expressed in Pichia pastoris, His-tag purified
T1 sequence (Q5AQQ0 19-237): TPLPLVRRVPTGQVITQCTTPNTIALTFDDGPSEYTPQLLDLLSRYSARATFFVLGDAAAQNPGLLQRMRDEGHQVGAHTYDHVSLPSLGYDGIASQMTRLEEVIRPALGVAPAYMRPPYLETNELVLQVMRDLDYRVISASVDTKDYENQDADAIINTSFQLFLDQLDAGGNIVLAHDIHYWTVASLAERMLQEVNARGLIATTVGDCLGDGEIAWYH
Briefly: acetate release assay on (GlcNAc)[…] with purified AnCDA; Dixon plot Ki (abstract also gives IC50 […]). In kind it is biochemical.

Substrate in data set [2]: CC(=O)N[C@H]1[C@H](O[C@H]2[C@H](O)[C@@H](NC(C)=O)[C@H](O[C@H]3[C@H](O)[C@@H](NC(C)=O)C(O)O[C@@H]3CO)O[C@@H]2CO)O[C@H](CO)[C@@H](O[C@@H]2O[C@H](CO)[C@@H](O[C@@H]3O[C@H](CO)[C@@H](O)[C@H](O)[C@H]3NC(C)=O)[C@H](O)[C@H]2NC(C)=O)[C@@H]1O
The experiment in a line: enzyme kinetics (Km) by acetate release assay. The settings on record: Co2+ ([…] CoCl2 in assay) active site. The format is biochemical, Aspergillus nidulans.

For the molecule `Cc1ccc(-c2nc(CNC(=O)c3cccnc3Cl)no2)cc1` [J075-4187], the Ki in data set [1] amounted to 31.6 µM.

B1: AnCDA (Aspergillus nidulans chitin deacetylase) (Aspergillus nidulans FGSC A4) (protein)
chain: TPLPLVRRVPTGQVITQCTTPNTIALTFDDGPSEYTPQLLDLLSRYSARATFFVLGDAAAQNPGLLQRMRDEGHQVGAHTYDHVSLPSLGYDGIASQMTRLEEVIRPALGVAPAYMRPPYLETNELVLQVMRDLDYRVISASVDTKDYENQDADAIINTSFQLFLDQLDAGGNIVLAHDIHYWTVASLAERMLQEVNARGLIATTVGDCLGDGEIAWYH
notes: recombinant AnCDA (GenBank XM_677557.1), expressed in Pichia pastoris, His-tag purified
In the case of B1, the Km in data set [2] was 72 µM.
